The source made the active and inactive calls. The calls are words filed in the database; no cut-off is given here.
Tests used:
Mus musculus [1] = assay: Toxicity in human MIAPaCa2 cells xenografted in Swiss mouse assessed as incidence of weight loss at 3 mg/kg, ip dosed three times per week; assay type: organism-based, MIA PaCa-2; set-up: dose 3 mg/kg, route intraperitoneal; settings: in vivo
Mus musculus [2] = assay: Reduction in Bcl-2 protein expression in human MIAPaCa2 cells xenografted Swiss mouse tumor at 3 mg/kg, ip dosed three times per week by immunoblot; assay type: functional, MIA PaCa-2; set-up: scale not given: the % may be the effect or the level left; settings: route intraperitoneal
MIA PaCa-2 [3] = assay: Effect on gammaH2AX protein expression human MIAPaCa2 cells at 0.1 uM to 1 uM incubated for 8 hrs by Western blot; assay type: functional, cell-based
Pancreas = assay: Biodistribution in human MIAPaCa2 cells xenografted Swiss mouse Pancreas at 3 mg/kg, ip dosed three times per week measured 48 hrs after last 4 cycles of compound dosing; assay type: ADME, organism-based, MIA PaCa-2; set-up: dose 3 mg/kg, route intraperitoneal; settings: in vivo
Mus musculus [4] = assay: Reduction in k-Ras protein expression in human MIAPaCa2 cells xenografted Swiss mouse tumor at 3 mg/kg, ip dosed three times per week by immunoblot; assay type: functional, organism-based; set-up: dose 3 mg/kg; settings: MIA PaCa-2
Mus musculus [5] = assay: Inhibition of telomerase activity in human MIAPaCa2 cells xenografted Swiss mouse at 3 mg/kg, ip dosed for 25 days by TRAP-LIG assay relative to untreated control; assay type: functional; settings: MIA PaCa-2, ip, 600 h, route intraperitoneal
Mus musculus [6] = assay: Reduction in hTERT protein expression in human MIAPaCa2 cells xenografted Swiss mouse tumor at 3 mg/kg, ip dosed three times per week by immunoblot; assay type: functional, MIA PaCa-2; set-up: scale not given: the % may be the effect or the level left; settings: route intraperitoneal
Mus musculus [7] = assay: Biodistribution in human MIAPaCa2 cells xenografted Swiss mouse tumor at 3 mg/kg, ip dosed three times per week measured 48 hrs after last 4 cycles of compound dosing; assay type: ADME, organism-based, Neoplasm, MIA PaCa-2; set-up: dose 3 mg/kg, route intraperitoneal; settings: in vivo
Nucleic Acid [8] = assay: Stabilization of HSP90b DNA G-quadruplex assessed as change in melting temperature at 1 uM by FRET; assay type: nucleic-acid assay
MIA PaCa-2 [9] = assay: Effect on PARP protein expression human MIAPaCa2 cells at 0.1 uM to 1 uM incubated for 8 hrs by Western blot; assay type: functional, cell-based
Mus musculus [10] = assay: Reduction in HSP90 protein expression in human MIAPaCa2 cells xenografted Swiss mouse tumor at 3 mg/kg, ip dosed three times per week by immunoblot; assay type: functional, MIA PaCa-2; set-up: scale not given: the % may be the effect or the level left; settings: route intraperitoneal
MIA PaCa-2 [11] = assay: Antitumor activity against human MIAPaCa2 cells xenografted in Swiss mouse assessed as reduction tumor volume at 3 mg/kg, ip dosed three times per week; assay type: functional; set-up: scale not given: the % may be the effect or the level left; settings: route intraperitoneal
Nucleic Acid [12] = assay: Stabilization of HSP90a DNA G-quadruplex assessed as change in melting temperature at 1 uM by FRET; assay type: nucleic-acid assay
Nucleic Acid [13] = assay: Stabilization of HSP90b DNA G-quadruplex assessed as change in melting temperature at 0.5 uM by FRET; assay type: nucleic-acid assay
[14] = Toxicity in human MIAPaCa2 cells xenografted in Swiss mouse assessed as maximum tolerated dosed intraperitoneally three times per week; assay type: organism-based, MIA PaCa-2; settings: in vivo, ip
Nucleic Acid [15] = assay: Stabilization of HSP90a DNA G-quadruplex assessed as change in melting temperature at 0.5 uM by FRET; assay type: nucleic-acid assay

CN1CCN(CCCNc2cc3c4c(c(NCCCN5CCN(C)CC5)cc5c4c2C(=O)N(CCCN2CCN(C)CC2)C5=O)C(=O)N(CCCN2CCN(C)CC2)C3=O)CC1
Activity (Mus musculus [1]): Non-toxic | Activity (Mus musculus [2]): 10% | Activity (MIA PaCa-2 [3]): inactive | Drug uptake (Pancreas): Active | Activity (Mus musculus [4]): inactive | inhibition in vivo at 3 mg/kg (Mus musculus [5]): 50% | Activity (Mus musculus [6]): 30% | Drug uptake (Mus musculus [7]): Active | ΔTm (Nucleic Acid [8]): 32 °C | Activity (MIA PaCa-2 [9]): inactive | Activity (Mus musculus [10]): 30% | Activity (MIA PaCa-2 [11]): 50% | ΔTm (Nucleic Acid [12]): 36.3 °C | ΔTm (Nucleic Acid [13]): 31 °C | MTD [14]: 15 mg/kg | ΔTm (Nucleic Acid [15]): 34.9 °C

From ChEMBL document CHEMBL2157890, “Targeting pancreatic cancer with a G-quadruplex ligand” (Bioorg Med Chem, 2011)
